Source: patent US20230277483A1, “COMPOSITIONS AND METHODS TO TREAT INFLAMMATION” (University of Iowa Research Foundation, priority 2022, published 2023)

Tests used:
[1] = tested on: human monocyte-derived macrophages (MDM) using THP-1 cells; experiment: Proinflammatory cytokines after Pg-LPS challenge (qRT-PCR, ELISA); format: cell-based
Experimental: Sg metabolites modulate proinflammatory cytokines in human periodontal associated cells in vitro. Sg were cultured in a total of 40 ml DMEM for 24 hrs. After 200 μl of Sg suspension reached 0.2 at OD600 value in a 96-well plate, the Sg metabolites were collected by centrifugation at 3000 g for 10 min and then filtered through a 0.22 μm filter. No toxicity of Sg metabolites was detected using an MTT assay on primary human bone marrow mesenchymal stromal cells (BMSCs) and primary human gingival fibroblasts (HGF) (data no shown). The modulation of Sg metabolites on inflammatory cytokines was tested using human monocyte-derived macrophages (MDM) and HGF. The MDM were generated by inducing a human macrophage cell line (THP-1) using PMA at 10 ng/ml. The MDM at 2×10^6 cells/per well and HGF at 2×10^4 cells/per well were cultured in 24-well plates using DMEM with 10% FBS and 1% PS. The Sg metabolites at 1 and 5% v/v were added and incubated for 24 hrs before challenging with Pg-LPS at 100 ng/ml.
Human monocyte-derived macrophages (MDM) using THP-1 cells and HGF were cultured in a 24-well plate with DMEM and challenged with Pg-LPS at 100 ng/ml.
In addition, freshly isolated epidydimal white adipose tissues (eWAT) from mice on a HFD for 16 weeks were minced and cultured in 24-well plates and treated with HCA at 0.5 and 1.0 μM in DMEM/F-12 containing 10% cosmic calf serum (CCS) and 1% penicillin-streptomycin (basal growth media, BGM). […] These preliminary data are strong evidence that Sg metabolites have the potential to modulate host inflammatory responses and attenuate inflammation.
HCA promotes proliferation of health related bacteria and inhibits proliferation and attachment of periodontopathogenic bacteria. Promoting the growth of health-related commensal bacteria while inhibiting proliferation and attachment of pathogenic bacteria may be effective at preventing or treating periodontal inflammation. To determine if HCA has an effect on the growth properties of commensal bacteria and periodontopathogens, HCA at different concentrations was added to aerobic culture of S. mitis and S. oralis and anaerobic culture of T. denticola as described in our published manuscript (see detail in Shu et al, Journal of Periodontology, 2022). FIGS. 18A-C summarize the functions of HCA on the proliferation of specific commensal and pathogenic bacteria. […] Furthermore, the function of HCA on P. gingivalis attachment, a key parameter of adhesion and biofilm formation by periodontopathogenic bacteria, was investigated. […] Attachment measurements of P. gingivalis were performed based on our published studies (see detail in Shu et al, Journal of Periodontology, 2022). […] To test the biocompatibility and anti-inflammatory properties of HCA, human monocyte-derived macrophages (MDM) and gingival fibroblasts (HGF) were prepared as described in our previous studies. The cells were then treated with HCA from 0.1 to 50 μM. No toxicity was observed after treatment with different concentrations of HCA in either cell type using an MTT assay (FIGS. 19A and B, left column). The anti-inflammatory function of HCA on MDM and HGF after exposure to P. gingivalis lipopolysaccharide (PG-LPS) was investigated. […] HCA mitigates inflammation and affects the composition of microbiomes in vivo. Recent studies investigated whether HCA modulates periodontal inflammation using a mouse model. To induce periodontal inflammation, a total of 1 μl Pg-LPS at 10 μg/μl was directly injected twice a week into the interdental region between maxillary molars of C57BL/6J mice using a Hamilton1700 series syringe according to our previously published studies. 100 μl of HCA at 0.5 μM was administrated I.P. three time a week. […] It was also tested whether HCA affects the composition of the microbiome in vivo. For this purpose, high fat diet-induced obese (DIO) mice (The Jackson Laboratory) received I.P, administration of 100 μl of HCA at 0.2 and 0.5 μM three times a week for 3 weeks. […]

[2] = tested on: human monocyte-derived macrophages (MDM); experiment: MTT toxicity assay; format: cell-based; settings: HCA from 0.1 to 50 μM; 24 and 48 hours
Experimental: HCA promotes proliferation of health related bacteria and inhibits proliferation and attachment of periodontopathogenic bacteria. Promoting the growth of health-related commensal bacteria while inhibiting proliferation and attachment of pathogenic bacteria may be effective at preventing or treating periodontal inflammation. To determine if HCA has an effect on the growth properties of commensal bacteria and periodontopathogens, HCA at different concentrations was added to aerobic culture of S. mitis and S. oralis and anaerobic culture of T. denticola as described in our published manuscript (see detail in Shu et al, Journal of Periodontology, 2022). FIGS. 18A-C summarize the functions of HCA on the proliferation of specific commensal and pathogenic bacteria. […] Furthermore, the function of HCA on P. gingivalis attachment, a key parameter of adhesion and biofilm formation by periodontopathogenic bacteria, was investigated. […] The composition of the microbiomes was determined by amplifying the V3 and V4 regions of the 16S rRNA genes. Raw data in FASTQ format were filtered and denoised using DADA2 (Divisive Amplicon Denoising Algorithm) to generate amplicon sequence variants (ASV) or operational taxonomical units (OTUs) that were then analyzed by QIIME2.

O=C(O)CCCCCO [HCA, 6-hydroxycaproic acid] was tested, and the “transcripts of IL-1β, IL-6, and IL-8” value ([1]; HCA at 0.1 μM, 6 hours following PG-LPS challenge at 0.1 μg/mL) was “significantly downregulated”, the “protein levels of IL-6 and IL-8” value ([1]; HCA at 0.1 μM, supernatant, after 24 hrs) was “significantly reduced” and the “transcripts of IL-1β, 6, and 8” value ([1]; HCA at 0.1 and 1.0 μM, Pg-LPS at 100 ng/ml, after 6 hrs) was “significantly downregulated”. The “proinflammatory cytokines (IL-6 transcript and IL-6 protein in supernatants)” value ([1]; at 0.1 μg after Pg-LPS challenge) was “modulate” and the “toxicity (MTT assay)” value [2] was “No toxicity”.
